What was measured:
rape = experiment: Test B pre/postemergence rape; type: in vivo, Brassica napus
Procedure, shortened: (§1)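 Herbicidal effect was estimated by eye on a ten-point control scale after plants spent twelve to sixteen days in a greenhouse following soil or foliar treatment. Foliar sprays targeted plants at one to four leaves; all doses were formulated in a non-phytotoxic solvent with surfactant.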

soybean = experiment: Test B pre/postemergence soybean; type: in vivo, Glycine max
Procedure, shortened: as §1

morningglory = experiment: Test B pre/postemergence morningglory; type: in vivo, Ipomoea hederacea
Procedure, shortened: as §1

bedstraw = experiment: Test B pre/postemergence bedstraw; type: in vivo, Galium aparine
Procedure, shortened: as §1

wild oat = experiment: Test B pre/postemergence wild oat; type: in vivo, Avena fatua
Procedure, shortened: as §1

cocklebur = experiment: Test B pre/postemergence cocklebur; type: in vivo, Xanthium strumarium
Procedure, shortened: as §1

bamyardgrass = experiment: Test B flood test barnyardgrass; type: in vivo, Echinochloa crus-galli
Procedure, shortened: (§2)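 Each value is a visual injury score relative to controls, with 10 meaning complete control and 0 no effect. Evaluation took place twelve to sixteen days after the 2-leaf-stage plants were treated and kept in the greenhouse.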

smallflower flatsedge = experiment: Test B flood test smallflower flatsedge; type: in vivo, Cyperus difformis
Procedure, shortened: as §2

surinam grass = experiment: Test B pre/postemergence surinam grass; type: in vivo, Brachiaria decumbens
Procedure, shortened: as §1

duck salad = experiment: Test B flood test duck salad; type: in vivo, Heteranthera limosa
Procedure, shortened: as §2

velvetleaf = experiment: Test B pre/postemergence velvetleaf; type: in vivo, Abutilon theophrasti
Procedure, shortened: as §1

crabgrass = experiment: Test B pre/postemergence crabgrass; type: in vivo, Digitaria sanguinalis
Procedure, shortened: as §1

pigweed = experiment: Test B pre/postemergence pigweed; type: in vivo, Amaranthus retroflexus
Procedure, shortened: as §1

sugar beet = experiment: Test B pre/postemergence sugar beet; type: in vivo, Beta vulgaris
Procedure, shortened: as §1

rice = experiment: Test B flood test rice; type: in vivo, Oryza sativa
Procedure, shortened: as §2

corn = experiment: Test B pre/postemergence corn; type: in vivo, Zea mays
Procedure, shortened: as §1

[1] = Preemergence, Rate 62 g/ha, scale of 0 to 10 where 0 is no effect and 10 is complete control
[2] = Preemergence, Rate 250 g/ha, scale of 0 to 10 where 0 is no effect and 10 is complete control
[3] = Preemergence, Rate 500 g/ha, scale of 0 to 10 where 0 is no effect and 10 is complete control
[4] = Rate 62 g/ha, Postemergence, scale 0 to 10 (0 no effect, 10 complete control)
[5] = Rate 125 g/ha, Postemergence, scale of 0 to 10 where 0 is no effect and 10 is complete control
[6] = Rate 250 g/ha, Postemergence, scale of 0 to 10 where 0 is no effect and 10 is complete control
[7] = Rate 500 g/ha, Postemergence, scale 0 to 10, 0 no effect, 10 complete control
[8] = Rate 62 g/ha, headed Pre-emergence (flood test species), scale 0 to 10 (0 no effect, 10 complete control)
[9] = Rate 125 g/ha, Pre-emergence, flood test species, scale 0 to 10 where 0 is no effect and 10 is complete control
[10] = Rate 250 g/ha, Pre-emergence, flood-test species, scale 0 to 10, 0 is no effect, 10 is complete control
[11] = Rate 500 g/ha, Pre-emergence, flood test species, scale 0 to 10 (0 no effect, 10 complete control)

## CC(C)N(C(=O)n1oc(=O)n(Cc2nnsc2Cl)c1=O)c1ccccc1 [Compound 321]
rape; [1]
  Rape plant response rating: 0
rape; Preemergence, Rate 125 g/ha
  Rape plant response rating (0 to 10 scale): 0
rape; [2]
  Rape plant response rating: 0
rape; [3]
  Rape plant response rating: 0
rape; [4]
  Rape plant response rating: 0
rape; [5]
  Rape plant response rating: 0
rape; [6]
  Plant response rating, Rape: 0
soybean; [1]
  Soybean plant response rating: 0
soybean; Preemergence, Rate 125 g/ha
  Soybean plant response rating (0 to 10 scale): 0
soybean; [2]
  Soybean plant response rating: 0
soybean; [3]
  Soybean plant response rating: 0
soybean; [4]
  Soybean plant response rating: 2
soybean; [6]
  Plant response rating, Soybean: 3
morningglory; [1]
  Morningglory plant response rating: 0
morningglory; Preemergence, Rate 125 g/ha
  Morningglory plant response rating (0 to 10 scale): 0
morningglory; [2]
  Morningglory plant response rating: 0
morningglory; [3]
  Morningglory plant response rating: 0
morningglory; [4]
  Morningglory plant response rating: 2
morningglory; [5]
  Morningglory plant response rating: 7
morningglory; [6]
  Plant response rating, Morningglory: 8
bedstraw; [1]
  Bedstraw plant response rating: 0
bedstraw; [3]
  Bedstraw plant response rating: 3
bedstraw; [4]
  Bedstraw plant response rating: 0
bedstraw; [5]
  Bedstraw plant response rating: 4
bedstraw; [6]
  Plant response rating, Bedstraw: 8
Wild oat; [1]
  Wild oats plant response rating: 0
Wild oat; Preemergence, Rate 125 g/ha
  Wild oats plant response rating (0 to 10 scale): 0
Wild oat; [2]
  Wild oats plant response rating: 2
Wild oat; [3]
  Wild oats plant response rating: 5
Wild oat; [4]
  Wild oats plant response rating: 0
Wild oat; [5]
  Wild oats plant response rating: 0
Wild oat; [6]
  Plant response rating, Wild oats: 0
cocklebur; [1]
  Cocklebur plant response rating: 0
cocklebur; Preemergence, Rate 125 g/ha
  Cocklebur plant response rating (0 to 10 scale): 0
cocklebur; [2]
  Cocklebur plant response rating: 0
cocklebur; [3]
  Cocklebur plant response rating: 0
cocklebur; [4]
  Cocklebur plant response rating: 0
cocklebur; [5]
  Cocklebur plant response rating: 0
cocklebur; [6]
  Plant response rating, Cocklebur: 0
cocklebur; [7]
  Cocklebur plant response rating: 0
bamyardgrass; [8]
  Barnyardgrass plant response rating: 0
bamyardgrass; [9]
  Barnyardgrass plant response rating: 0
bamyardgrass; [10]
  Barnyardgrass plant response rating: 0
bamyardgrass; [11]
  Barnyardgrass plant response rating: 0
Smallflower flatsedge; [8]
  S. Flatsedge plant response rating: 0
Smallflower flatsedge; [9]
  S. Flatsedge plant response rating: 0
Smallflower flatsedge; [10]
  S. Flatsedge plant response rating: 0
Smallflower flatsedge; [11]
  S. Flatsedge plant response rating: 0
Surinam grass; [1]
  B. signalgrass plant response rating: 0
Surinam grass; Preemergence, Rate 125 g/ha
  B. signalgrass plant response rating (0 to 10 scale, 0 is no effect, 10 is complete control): 0
Surinam grass; [2]
  B. signalgrass plant response rating: 3
Surinam grass; [3]
  B. signalgrass plant response rating: 5
Surinam grass; [4]
  B. signalgrass plant response rating: 0
Surinam grass; [5]
  B. signalgrass plant response rating: 0
Surinam grass; [6]
  Plant response rating, B. signalgrass: 0
Surinam grass; [7]
  B. signalgrass plant response rating: 0
Duck salad; [8]
  Ducksalad plant response rating: 0
Duck salad; [9]
  Ducksalad plant response rating: 0
Duck salad; [10]
  Ducksalad plant response rating: 0
Duck salad; [11]
  Ducksalad plant response rating: 0
velvetleaf; [1]
  Velvetleaf plant response rating: 0
velvetleaf; Preemergence, Rate 125 g/ha
  Velvetleaf plant response rating (0 to 10 scale): 0
velvetleaf; [2]
  Velvetleaf plant response rating: 0
velvetleaf; [3]
  Velvetleaf plant response rating: 0
velvetleaf; [4]
  Velvetleaf plant response rating: 0
velvetleaf; [5]
  Velvetleaf plant response rating: 0
velvetleaf; [6]
  Plant response rating, Velvetleaf: 0
crabgrass; [1]
  Crabgrass plant response rating: 0
crabgrass; Preemergence, Rate 125 g/ha
  Crabgrass plant response rating (0 to 10 scale): 2
crabgrass; [2]
  Crabgrass plant response rating: 3
crabgrass; [3]
  Crabgrass plant response rating: 4
crabgrass; [4]
  Crabgrass plant response rating: 0
crabgrass; [5]
  Crabgrass plant response rating: 0
crabgrass; [6]
  Plant response rating, Crabgrass: 2
pigweed; [1]
  Redroot pigweed plant response rating: 0
pigweed; Preemergence, Rate 125 g/ha
  Redroot pigweed plant response rating (0 to 10 scale): 0
pigweed; [2]
  Redroot pigweed plant response rating: 0
pigweed; [3]
  Redroot pigweed plant response rating: 0
pigweed; [4]
  Redroot pigweed plant response rating: 2
pigweed; [5]
  Redroot pigweed plant response rating: 3
pigweed; [6]
  Plant response rating, Redroot pigweed: 4
Sugar beet; [1]
  Sugarbeets plant response rating: 0
Sugar beet; Preemergence, Rate 125 g/ha
  Sugarbeets plant response rating (0 to 10 scale): 0
Sugar beet; [2]
  Sugarbeets plant response rating: 0
Sugar beet; [3]
  Sugarbeets plant response rating: 0
Sugar beet; [4]
  Sugarbeets plant response rating: 0
Sugar beet; [5]
  Sugarbeets plant response rating: 0
Sugar beet; [6]
  Plant response rating, Sugarbeets: 5
rice; [8]
  Rice plant response rating: 0
rice; [9]
  Rice plant response rating: 0
rice; [10]
  Rice plant response rating: 0
rice; [11]
  Rice plant response rating: 0
corn; [1]
  Corn plant response rating: 0
corn; Preemergence, Rate 125 g/ha
  Corn plant response rating (0 to 10 scale): 0
corn; [2]
  Corn plant response rating: 0
corn; [3]
  Corn plant response rating: 0
corn; [4]
  Corn plant response rating: 0
corn; [5]
  Corn plant response rating: 0
corn; [6]
  Plant response rating, Corn: 0
corn; [7]
  Corn plant response rating: 0
